Values quoted from earlier work in US20060052437A1, “Combination of an hmg-coa reductase inhibitor and a nitrate ester” (priority 2002, published 2006).

Key:
[1] = compared to aspirin
[2] = at withdrawal from the market, August 2001

Row | Compound | toxicity at gastric level [1] | deaths attributable to rhabdomyolysis [2]
1 | CC(=O)Oc1ccccc1C(=O)Oc1cccc(CO[N+](=O)[O-])c1 [NCX-4016, 2-acetyloxy-benzoic acid 3-nitroxymethyl-phenyl ester] | not toxic at gastric level | 
2 | COCc1c(C(C)C)nc(C(C)C)c(/C=C/[C@@H](O)C[C@@H](O)CC(=O)O)c1-c1ccc(F)cc1 [cerivastatin] |  | 52 deaths
